{"source": "patent US12043870B2", "about": "“Methods and compositions for detecting and modulating an immunotherapy resistance gene signature in cancer” (The Broad Institute, Inc., priority 2017, dated 2024)", "key": {"[1]": {"tested_on": "human melanoma cells (Melanoma cell line 2686)", "experiment": "Abemaciclib doubling time and cytostatic effect", "assay_type": "cell-based", "settings": "abemaciclib 500 nM", "experimental": "Cell number and viability were determined using the Countess™ II FL Automated Cell Counter (ThermoFisher) on days 2, 4 and 6. All experiments were performed in triplicates. Cell doubling per 24 hours was determined based on cell numbers comparing cells seeded and on day 6 using the following formula: duration (in days) x log(2)/log(final cell number) - log(initial cell number)."}, "UACC257": {"tested_on": "UACC257", "experiment": "scRNA-seq of melanoma cell line before and after treatment with abemaciclib for 1 week", "assay_type": "cell-based, human", "settings": "UACC257 (RB1-sufficient); abemaciclib 1 week; 10% prior to treatment", "description": "(§1) To determine this effect in melanoma, Applicants identified melanoma cell lines in the Cancer Cell Line Encyclopedia (CCLE) with the strongest expression of the uICR signature, including IGR37, UACC257 (both RB-sufficient) and A2058 (RB-deficient). Applicants performed scRNA-seq on these cell lines before and after treatment with abemaciclib for 1 week (FIG. 41). In both IGR37 and UACC257, Applicants saw a decrease in the expression of the uICR state (P<3.59*10^−34, one-sided t-test). […] This population decreased from 10% before treatment (2,454 cells) to 2% in the post-treatment condition (1,570 cells).\n(§2) To test this hypothesis, Applicants studied the effect of abemaciclib on the immune resistance program in melanoma cell lines. […] Applicants profiled each cell line with scRNA-seq before and after treatment with abemaciclib for 1 week (FIGS. 49D-E), analyzing over 23,000 cells in these and follow-up conditions (below). […]\n(§3) Established melanoma cell lines […] and A2058 were acquired from the Cancer Cell Line Encyclopedia (CCLE) from the Broad Institute. […] Cells were lifted off culture dishes using Versene solution (Life Technologies), washed twice in 1×PBS, counted and resuspended in PBS supplemented with 0.04% BSA for loading for scRNA-seq with the 10X Genomics platform."}, "IGR37": {"tested_on": "IGR37", "experiment": "scRNA-seq of melanoma cell line before and after treatment with abemaciclib for 1 week", "assay_type": "cell-based, human", "settings": "IGR37 (RB1-sufficient); abemaciclib 1 week; 10% prior to treatment", "description": "as §1, §2, §3"}, "melanoma cells": {"tested_on": "melanoma cells", "experiment": "Measurement of 40 human cytokines/chemokines in conditioned media of abemaciclib or DMSO treated cancer cells"}}, "note": "“And” between values parts separate entries of the source, which are not always exact repeats. Equal entries are not always repeated.", "data": [{"smiles": "CCN1CCN(Cc2ccc(Nc3ncc(F)c(-c4cc(F)c5nc(C)n(C(C)C)c5c4)n3)nc2)CC1", "note": "[abemaciclib]", "values": [{"measurement": "cytotoxic effects", "setting": "[1]", "result": "do not find significant cytotoxic effects"}, {"measurement": "rate of proliferation", "setting": "[1]; DMSO 0.64", "result": 0.3, "unit": "doublings/24 hrs"}, {"measurement": "fraction of cells with exceptionally strong expression of the immune resistance program (\"immune resistant\" cells) post-treatment", "setting": "UACC257", "result": "1% and 0.6%"}, {"measurement": "fraction of cells with exceptionally strong expression of the immune resistance (uICR) program (\"immune resistant\" cells) post-treatment", "setting": "IGR37", "result": 2, "unit": "%"}, {"measurement": "Fold change (abemaciclib vs. DMSO treatment)", "setting": "melanoma cells; Hu 6Ckine/CCL21", "result": 0.9700}, {"measurement": "Fold change (abemaciclib vs. DMSO treatment)", "setting": "melanoma cells; Hu CTACK/CCL27", "result": 1.0834}, {"measurement": "Fold change (abemaciclib vs. DMSO treatment)", "setting": "melanoma cells; Hu ENA-78/CXCL5", "result": 1.0188}, {"measurement": "Fold change (abemaciclib vs. DMSO treatment)", "setting": "melanoma cells; Hu Eotaxin-3/CCL26", "result": 3.0279}, {"measurement": "Fold change (abemaciclib vs. DMSO treatment)", "setting": "melanoma cells; Hu Eotaxin/CCL11", "result": 0.9599}, {"measurement": "Fold change (abemaciclib vs. DMSO treatment)", "setting": "melanoma cells; Hu Fractalkine/CX3CL1", "result": 2.1863}, {"measurement": "Fold change (abemaciclib vs. DMSO treatment)", "setting": "melanoma cells; Hu GCP-2/CXCL6", "result": 0.6386}, {"measurement": "Fold change (abemaciclib vs. DMSO treatment)", "setting": "melanoma cells; Hu GM-CSF", "result": 1.0191}, {"measurement": "Fold change (abemaciclib vs. DMSO treatment)", "setting": "melanoma cells; Hu Gro-a/CXCL1", "result": 0.9135}, {"measurement": "Fold change (abemaciclib vs. DMSO treatment)", "setting": "melanoma cells; Hu Gro-b/CXCL2", "result": 0.7471}, {"measurement": "Fold change (abemaciclib vs. DMSO treatment)", "setting": "melanoma cells; Hu I-309/CCL1", "result": 1.0389}, {"measurement": "Fold change (abemaciclib vs. DMSO treatment)", "setting": "melanoma cells; Hu I-TAC/CXCL11", "result": 0.9524}, {"measurement": "Fold change (abemaciclib vs. DMSO treatment)", "setting": "melanoma cells; Hu IL-1b", "result": 1.0719}, {"measurement": "Fold change (abemaciclib vs. DMSO treatment)", "setting": "melanoma cells; Hu IL-2", "result": 0.5882}, {"measurement": "Fold change (abemaciclib vs. DMSO treatment)", "setting": "melanoma cells; Hu IL-4", "result": 1.6605}, {"measurement": "Fold change (abemaciclib vs. DMSO treatment)", "setting": "melanoma cells; Hu IL-6", "result": 0.3788}, {"measurement": "Fold change (abemaciclib vs. DMSO treatment)", "setting": "melanoma cells; Hu IL-8", "result": 0.7253}, {"measurement": "Fold change (abemaciclib vs. DMSO treatment)", "setting": "melanoma cells; Hu IL-10", "result": 1.0079}, {"measurement": "Fold change (abemaciclib vs. DMSO treatment)", "setting": "melanoma cells; Hu IL-16", "result": 0.8482}, {"measurement": "Fold change (abemaciclib vs. DMSO treatment)", "setting": "melanoma cells; Hu IP-10/CXCL10", "result": 0.9103}, {"measurement": "Fold change (abemaciclib vs. DMSO treatment)", "setting": "melanoma cells; Hu MCP-1/CCL2", "result": 0.7175}, {"measurement": "Fold change (abemaciclib vs. DMSO treatment)", "setting": "melanoma cells; Hu MCP-2/CCL8", "result": 1.0388}, {"measurement": "Fold change (abemaciclib vs. DMSO treatment)", "setting": "melanoma cells; Hu MCP-3/CCL7", "result": 1.0422}, {"measurement": "Fold change (abemaciclib vs. DMSO treatment)", "setting": "melanoma cells; Hu MCP-4/CCL13", "result": 0.8887}, {"measurement": "Fold change (abemaciclib vs. DMSO treatment)", "setting": "melanoma cells; Hu MDC/CCL22", "result": 1.1142}, {"measurement": "Fold change (abemaciclib vs. DMSO treatment)", "setting": "melanoma cells; Hu MIF", "result": 2.9587}, {"measurement": "Fold change (abemaciclib vs. DMSO treatment)", "setting": "melanoma cells; Hu MIP-1a/CCL3", "result": 1.0350}, {"measurement": "Fold change (abemaciclib vs. DMSO treatment)", "setting": "melanoma cells; Hu MIP-3a/CCL20", "result": 3.4000}, {"measurement": "Fold change (abemaciclib vs. DMSO treatment)", "setting": "melanoma cells; Hu MIP-3b/CCL19", "result": 0.8717}, {"measurement": "Fold change (abemaciclib vs. DMSO treatment)", "setting": "melanoma cells; Hu MIP-1d/CCL15", "result": 1.0809}, {"measurement": "Fold change (abemaciclib vs. DMSO treatment)", "setting": "melanoma cells; Hu SCYB16/CXCL16", "result": 1.1278}, {"measurement": "Fold change (abemaciclib vs. DMSO treatment)", "setting": "melanoma cells; Hu SDF1a + b/CXCL12", "result": 0.8885}, {"measurement": "Fold change (abemaciclib vs. DMSO treatment)", "setting": "melanoma cells; Hu TARC/CCL17", "result": 1.0104}, {"measurement": "Fold change (abemaciclib vs. DMSO treatment)", "setting": "melanoma cells; Hu TECK/CCL25", "result": 1.5510}, {"measurement": "Fold change (abemaciclib vs. DMSO treatment)", "setting": "melanoma cells; Hu TNF-a", "result": 0.7465}]}]}
